Laboratory results as given in BigSolDB 2.1.

CC(=O)Oc1ccccc1C(=O)Nc1ncc([N+](=O)[O-])s1 gave a solubility (mole fraction) (in 1,4-dioxane, 288.15 K) of 0.0102, a solubility (mole fraction) (in 1,4-dioxane, 293.15 K) of 0.0131 and a solubility (mole fraction) (in 1,4-dioxane, 298.15 K) of 0.0167. For the same compound, the solubility (mole fraction) (in 1,4-dioxane, 303.15 K) was 0.0207, the solubility (mole fraction) (in 1,4-dioxane, 308.15 K) was 0.0254 and the solubility (mole fraction) (in 1,4-dioxane, 313.15 K) was 0.0311. It also gave a solubility (mole fraction) (in 2-butanone, 273.15 K) of 0.00334, a solubility (mole fraction) (in 2-butanone, 278.15 K) of 0.00496 and a solubility (mole fraction) (in 2-butanone, 283.15 K) of 0.0066. It also gave a solubility (mole fraction) (in 2-butanone, 288.15 K) of 0.00859, a solubility (mole fraction) (in 2-butanone, 293.15 K) of 0.0107 and a solubility (mole fraction) (in 2-butanone, 298.15 K) of 0.0131. The solubility (mole fraction) (in 2-butanone, 303.15 K) was 0.0158, the solubility (mole fraction) (in 2-butanone, 308.15 K) was 0.0191 and the solubility (mole fraction) (in 2-butanone, 313.15 K) was 0.0229. For the same compound, the solubility (mole fraction) (in DMF, 273.15 K) was 0.0637, the solubility (mole fraction) (in DMF, 278.15 K) was 0.0672 and the solubility (mole fraction) (in DMF, 283.15 K) was 0.0711. The solubility (mole fraction) (in DMF, 288.15 K) was 0.0751, the solubility (mole fraction) (in DMF, 293.15 K) was 0.0797 and the solubility (mole fraction) (in DMF, 298.15 K) was 0.0846. The solubility (mole fraction) (in DMF, 303.15 K) was 0.0901, the solubility (mole fraction) (in DMF, 308.15 K) was 0.097 and the solubility (mole fraction) (in DMF, 313.15 K) was 0.104. It also gave a solubility (mole fraction) (in NMP, 273.15 K) of 0.0878, a solubility (mole fraction) (in NMP, 278.15 K) of 0.09 and a solubility (mole fraction) (in NMP, 283.15 K) of 0.0925. For the same compound, the solubility (mole fraction) (in NMP, 288.15 K) was 0.0953, the solubility (mole fraction) (in NMP, 293.15 K) was 0.098 and the solubility (mole fraction) (in NMP, 298.15 K) was 0.101. The solubility (mole fraction) (in NMP, 303.15 K) was 0.105, the solubility (mole fraction) (in NMP, 308.15 K) was 0.109 and the solubility (mole fraction) (in NMP, 313.15 K) was 0.113. The solubility (mole fraction) (in acetonitrile, 273.15 K) was 0.00082, the solubility (mole fraction) (in acetonitrile, 278.15 K) was 0.000924 and the solubility (mole fraction) (in acetonitrile, 283.15 K) was 0.00103. The solubility (mole fraction) (in acetonitrile, 288.15 K) was 0.00115, the solubility (mole fraction) (in acetonitrile, 293.15 K) was 0.00127 and the solubility (mole fraction) (in acetonitrile, 298.15 K) was 0.00141. It also gave a solubility (mole fraction) (in acetonitrile, 303.15 K) of 0.00158, a solubility (mole fraction) (in acetonitrile, 308.15 K) of 0.00178 and a solubility (mole fraction) (in acetonitrile, 313.15 K) of 0.00201. The solubility (mole fraction) (in ethanol, 273.15 K) was 0.000117, the solubility (mole fraction) (in ethanol, 278.15 K) was 0.000147 and the solubility (mole fraction) (in ethanol, 283.15 K) was 0.000179. For the same compound, the solubility (mole fraction) (in ethanol, 288.15 K) was 0.000211, the solubility (mole fraction) (in ethanol, 293.15 K) was 0.000246 and the solubility (mole fraction) (in ethanol, 298.15 K) was 0.000285. It also gave a solubility (mole fraction) (in ethanol, 303.15 K) of 0.000331, a solubility (mole fraction) (in ethanol, 308.15 K) of 0.000385 and a solubility (mole fraction) (in ethanol, 313.15 K) of 0.00045. For the same compound, the solubility (mole fraction) (in ethyl acetate, 273.15 K) was 0.00185, the solubility (mole fraction) (in ethyl acetate, 278.15 K) was 0.00206 and the solubility (mole fraction) (in ethyl acetate, 283.15 K) was 0.00229. It also gave a solubility (mole fraction) (in ethyl acetate, 288.15 K) of 0.00252, a solubility (mole fraction) (in ethyl acetate, 293.15 K) of 0.00276 and a solubility (mole fraction) (in ethyl acetate, 298.15 K) of 0.003. The solubility (mole fraction) (in ethyl acetate, 303.15 K) was 0.0033, the solubility (mole fraction) (in ethyl acetate, 308.15 K) was 0.00362 and the solubility (mole fraction) (in ethyl acetate, 313.15 K) was 0.00399. The solubility (mole fraction) (in isopropanol, 273.15 K) was 0.000162, the solubility (mole fraction) (in isopropanol, 278.15 K) was 0.000202 and the solubility (mole fraction) (in isopropanol, 283.15 K) was 0.000243. It also gave a solubility (mole fraction) (in isopropanol, 288.15 K) of 0.000287, a solubility (mole fraction) (in isopropanol, 293.15 K) of 0.000333 and a solubility (mole fraction) (in isopropanol, 298.15 K) of 0.000383. It also gave a solubility (mole fraction) (in isopropanol, 303.15 K) of 0.000436, a solubility (mole fraction) (in isopropanol, 308.15 K) of 0.000502 and a solubility (mole fraction) (in isopropanol, 313.15 K) of 0.00058. The solubility (mole fraction) (in methanol, 273.15 K) was 0.000103, the solubility (mole fraction) (in methanol, 278.15 K) was 0.000126 and the solubility (mole fraction) (in methanol, 283.15 K) was 0.00015. It also gave a solubility (mole fraction) (in methanol, 288.15 K) of 0.000177, a solubility (mole fraction) (in methanol, 293.15 K) of 0.000202 and a solubility (mole fraction) (in methanol, 298.15 K) of 0.00023. The solubility (mole fraction) (in methanol, 303.15 K) was 0.000261, the solubility (mole fraction) (in methanol, 308.15 K) was 0.000298 and the solubility (mole fraction) (in methanol, 313.15 K) was 0.000334. For the same compound, the solubility (mole fraction) (in n-butanol, 273.15 K) was 0.000176, the solubility (mole fraction) (in n-butanol, 278.15 K) was 0.000214 and the solubility (mole fraction) (in n-butanol, 283.15 K) was 0.000257. For the same compound, the solubility (mole fraction) (in n-butanol, 288.15 K) was 0.000303, the solubility (mole fraction) (in n-butanol, 293.15 K) was 0.000354 and the solubility (mole fraction) (in n-butanol, 298.15 K) was 0.000408. It also gave a solubility (mole fraction) (in n-butanol, 303.15 K) of 0.000471, a solubility (mole fraction) (in n-butanol, 308.15 K) of 0.000541 and a solubility (mole fraction) (in n-butanol, 313.15 K) of 0.000617. The solubility (mole fraction) (in n-propanol, 273.15 K) was 0.000138, the solubility (mole fraction) (in n-propanol, 278.15 K) was 0.000173 and the solubility (mole fraction) (in n-propanol, 283.15 K) was 0.000211. It also gave a solubility (mole fraction) (in n-propanol, 288.15 K) of 0.00025, a solubility (mole fraction) (in n-propanol, 293.15 K) of 0.00029 and a solubility (mole fraction) (in n-propanol, 298.15 K) of 0.000336. For the same compound, the solubility (mole fraction) (in n-propanol, 303.15 K) was 0.00039, the solubility (mole fraction) (in n-propanol, 308.15 K) was 0.000453 and the solubility (mole fraction) (in n-propanol, 313.15 K) was 0.000525. It also gave a solubility (mole fraction) (in toluene, 273.15 K) of 7.6e-05, a solubility (mole fraction) (in toluene, 278.15 K) of 9.9e-05 and a solubility (mole fraction) (in toluene, 283.15 K) of 0.000123. For the same compound, the solubility (mole fraction) (in toluene, 288.15 K) was 0.000146, the solubility (mole fraction) (in toluene, 293.15 K) was 0.00017 and the solubility (mole fraction) (in toluene, 298.15 K) was 0.000197. For the same compound, the solubility (mole fraction) (in toluene, 303.15 K) was 0.000225, the solubility (mole fraction) (in toluene, 308.15 K) was 0.000258 and the solubility (mole fraction) (in toluene, 313.15 K) was 0.000291.
